Reference: PubChem BioAssay (NCI)
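A five-concentration, 48-hour dose response in 96-well plates underlies each endpoint, interpolated linearly between surrounding concentrations. TGI denotes the concentration required for complete inhibition of growth.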

Columns and labels:
Assay in all cases: DTP human tumour cell line panel, 48 h
SK-MEL-2 melanoma = tested on: SK-MEL-2 melanoma
XF 498 CNS = tested on: XF 498 CNS
HOP-92 NSCLC = tested on: HOP-92 NSCLC
SNB-19 CNS = tested on: SNB-19 CNS
CAKI-1 renal = tested on: CAKI-1 renal
SK-OV-3 ovarian = tested on: SK-OV-3 ovarian
SNB-75 CNS = tested on: SNB-75 CNS
A549 NSCLC = tested on: A549 NSCLC
SNB-78 CNS = tested on: SNB-78 CNS
NCI-H226 lung = tested on: NCI-H226 lung
M14 melanoma = tested on: M14 melanoma
OVCAR-8 ovarian = tested on: OVCAR-8 ovarian
HOP-62 NSCLC = tested on: HOP-62 NSCLC
OVCAR-4 ovarian = tested on: OVCAR-4 ovarian
ACHN renal = tested on: ACHN renal
M19-MEL melanoma = tested on: M19-MEL melanoma
SN12C renal = tested on: SN12C renal
SK-MEL-28 melanoma = tested on: SK-MEL-28 melanoma
KM20L2 colon = tested on: KM20L2 colon
786-0 renal = tested on: 786-0 renal
UACC-257 melanoma = tested on: UACC-257 melanoma
HT29 colon = tested on: HT29 colon
DMS 273 small cell lung = tested on: DMS 273 small cell lung
SF-268 CNS = tested on: SF-268 CNS
A498 renal = tested on: A498 renal
RXF-631 renal = tested on: RXF-631 renal
NCI-H23 lung = tested on: NCI-H23 lung
SF-539 CNS = tested on: SF-539 CNS
NCI-H460 lung = tested on: NCI-H460 lung
UACC-62 melanoma = tested on: UACC-62 melanoma
KM12 colon = tested on: KM12 colon
MALME-3M melanoma = tested on: MALME-3M melanoma
CCRF-CEM leukemia = tested on: CCRF-CEM leukemia
DLD-1 colon = tested on: DLD-1 colon
UO-31 renal = tested on: UO-31 renal
HL-60(TB) leukemia = tested on: HL-60(TB) leukemia
IGROV1 ovarian = tested on: IGROV1 ovarian
TK-10 renal = tested on: TK-10 renal
OVCAR-3 ovarian = tested on: OVCAR-3 ovarian
NCI-H522 lung = tested on: NCI-H522 lung
HCC-2998 colon = tested on: HCC-2998 colon
HOP-18 NSCLC = tested on: HOP-18 NSCLC
SF-295 CNS = tested on: SF-295 CNS
SK-MEL-5 melanoma = tested on: SK-MEL-5 melanoma
SR leukemia = tested on: SR leukemia
OVCAR-5 ovarian = tested on: OVCAR-5 ovarian
HCT-15 colon = tested on: HCT-15 colon
MOLT-4 leukemia = tested on: MOLT-4 leukemia
U251 CNS = tested on: U251 CNS
COLO 205 colon = tested on: COLO 205 colon
EKVX NSCLC = tested on: EKVX NSCLC
RPMI-8226 leukemia = tested on: RPMI-8226 leukemia
HCT-116 colon = tested on: HCT-116 colon
K-562 leukemia = tested on: K-562 leukemia
SW-620 colon = tested on: SW-620 colon
LXFL 529 NSCLC = tested on: LXFL 529 NSCLC
LOX IMVI melanoma = tested on: LOX IMVI melanoma
DMS 114 small cell lung = tested on: DMS 114 small cell lung

Measured: TGI

CCC(C(=O)c1ccccc1)C(CCCC(=O)Nc1c(C)cccc1C)N=O (configuration not stated)
> 100 µM: SK-MEL-2 melanoma | XF 498 CNS | HOP-92 NSCLC | SNB-19 CNS | CAKI-1 renal | SK-OV-3 ovarian | SNB-75 CNS | A549 NSCLC | SNB-78 CNS | NCI-H226 lung | M14 melanoma | OVCAR-8 ovarian | HOP-62 NSCLC | OVCAR-4 ovarian | ACHN renal | M19-MEL melanoma | SN12C renal | SK-MEL-28 melanoma | KM20L2 colon | 786-0 renal | UACC-257 melanoma | HT29 colon | DMS 273 small cell lung | SF-268 CNS | A498 renal | RXF-631 renal | NCI-H23 lung | SF-539 CNS | NCI-H460 lung | UACC-62 melanoma | KM12 colon | MALME-3M melanoma | CCRF-CEM leukemia | DLD-1 colon | UO-31 renal | HL-60(TB) leukemia | IGROV1 ovarian | TK-10 renal | OVCAR-3 ovarian | NCI-H522 lung | HCC-2998 colon | HOP-18 NSCLC | SF-295 CNS | SK-MEL-5 melanoma | SR leukemia | OVCAR-5 ovarian | HCT-15 colon | MOLT-4 leukemia | U251 CNS | COLO 205 colon | EKVX NSCLC | RPMI-8226 leukemia | HCT-116 colon | K-562 leukemia | SW-620 colon | LXFL 529 NSCLC

COc1cc2c(cn1)[nH]c1ccccc12
> 100 µM: SK-MEL-2 melanoma | XF 498 CNS | HOP-92 NSCLC | SNB-19 CNS | CAKI-1 renal | SK-OV-3 ovarian | SNB-75 CNS | A549 NSCLC | SNB-78 CNS | NCI-H226 lung | M14 melanoma | OVCAR-8 ovarian | HOP-62 NSCLC | OVCAR-4 ovarian | ACHN renal | SN12C renal | SK-MEL-28 melanoma | KM20L2 colon | 786-0 renal | UACC-257 melanoma | HT29 colon | DMS 273 small cell lung | SF-268 CNS | RXF-631 renal | NCI-H23 lung | SF-539 CNS | NCI-H460 lung | UACC-62 melanoma | KM12 colon | MALME-3M melanoma | CCRF-CEM leukemia | DLD-1 colon | UO-31 renal | HL-60(TB) leukemia | IGROV1 ovarian | TK-10 renal | OVCAR-3 ovarian | NCI-H522 lung | HCC-2998 colon | HOP-18 NSCLC | LOX IMVI melanoma | SF-295 CNS | SK-MEL-5 melanoma | SR leukemia | OVCAR-5 ovarian | HCT-15 colon | MOLT-4 leukemia | U251 CNS | COLO 205 colon | EKVX NSCLC | RPMI-8226 leukemia | DMS 114 small cell lung | HCT-116 colon | K-562 leukemia | SW-620 colon | LXFL 529 NSCLC
